The source of these data is patent US9637483B2, “Heterocyclic compound” (TAKEDA PHARMACEUTICAL COMPANY LIMITED, priority 2013, dated 2017).

What all share (format): biochemical
One test deals with T1, JAK2 (Homo sapiens, UniProt O60674).
T1 construct: purchased Invitrogen
Put plainly: JAK2 enzyme inhibition test (LANCE method). Conditions: 1 μM test compound; for inhibition at 1 µM: read-out: JAK2 enzyme inhibitory activity (%, 1 μM). The method, boiled down:
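TR-FRET (LANCE) read-out, ex 340/em 665 nm with 100 μs delay, after 1 hr room-temperature detection with europium anti-phosphotyrosine antibody and 20 mM EDTA. The preceding 1 hr kinase reaction combined JAK2, ULight-JAK1 substrate and ATP, added as 6 ng/mL, 300 nM and 45 μM solutions; enzyme-free wells defined 100% inhibition.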
Background: TR-FRET usually uses a lanthanide donor and a delayed reading to cut background.

A further test addresses T2, TYK2 (Homo sapiens, UniProt P29597).
T2 construct: purchased Invitrogen
The test is described as follows: TYK2 enzyme inhibition test (LANCE method). Conditions: 1 μM test compound; for inhibition at 1 µM: read-out: TYK2 enzyme inhibitory activity (%, 1 μM). The method, boiled down: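 TR-FRET (LANCE) readout: after 1 h room-temperature kinase reaction, EDTA plus 4 nM Eu-labelled anti-phosphotyrosine antibody added, signal at 665 nm (340 nm excitation). Reaction combined TYK2, ULight-JAK1 substrate and ATP, prepared at 375 ng/mL, 300 nM and 30 μM before addition, in pH 7.5 HEPES/MgCl2 buffer; enzyme-free wells define full inhibition.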

For a further test, the target named is T3, JAK1 (Homo sapiens, UniProt P23458).
T3 construct: purchased Invitrogen
T3 sequence (P23458 whole entry): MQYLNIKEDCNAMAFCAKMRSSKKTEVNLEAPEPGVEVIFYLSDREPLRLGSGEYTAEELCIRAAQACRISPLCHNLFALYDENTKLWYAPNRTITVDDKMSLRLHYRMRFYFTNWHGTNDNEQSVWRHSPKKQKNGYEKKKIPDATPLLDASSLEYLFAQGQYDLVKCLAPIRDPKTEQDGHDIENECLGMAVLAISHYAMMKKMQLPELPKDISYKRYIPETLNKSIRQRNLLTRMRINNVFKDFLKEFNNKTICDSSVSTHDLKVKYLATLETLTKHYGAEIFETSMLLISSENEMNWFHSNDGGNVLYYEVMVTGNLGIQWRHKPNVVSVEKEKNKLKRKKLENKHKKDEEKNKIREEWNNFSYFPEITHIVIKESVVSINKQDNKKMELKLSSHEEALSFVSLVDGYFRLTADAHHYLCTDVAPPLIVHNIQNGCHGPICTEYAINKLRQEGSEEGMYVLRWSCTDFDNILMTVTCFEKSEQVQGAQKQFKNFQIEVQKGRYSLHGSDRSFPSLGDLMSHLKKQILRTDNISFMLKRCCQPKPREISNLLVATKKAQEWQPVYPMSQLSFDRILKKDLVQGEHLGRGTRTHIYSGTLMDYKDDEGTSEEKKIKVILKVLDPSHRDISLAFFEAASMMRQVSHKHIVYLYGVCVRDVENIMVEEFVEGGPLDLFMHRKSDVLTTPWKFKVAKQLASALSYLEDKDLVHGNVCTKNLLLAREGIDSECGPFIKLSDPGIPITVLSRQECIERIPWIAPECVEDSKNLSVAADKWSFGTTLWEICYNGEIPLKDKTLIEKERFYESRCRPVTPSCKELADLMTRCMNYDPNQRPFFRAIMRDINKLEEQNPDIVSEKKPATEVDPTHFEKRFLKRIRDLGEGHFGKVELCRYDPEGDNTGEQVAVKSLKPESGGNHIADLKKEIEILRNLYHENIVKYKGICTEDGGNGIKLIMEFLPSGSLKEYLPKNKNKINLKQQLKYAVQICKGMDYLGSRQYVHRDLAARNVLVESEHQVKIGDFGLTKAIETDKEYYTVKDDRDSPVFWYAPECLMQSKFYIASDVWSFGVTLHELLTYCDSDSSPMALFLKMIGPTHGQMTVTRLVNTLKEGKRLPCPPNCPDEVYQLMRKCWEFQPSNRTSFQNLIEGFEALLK
The test is described as follows: JAK1 enzyme inhibition test (LANCE method). Conditions: 1 μM test compound; for inhibition at 1 µM: read-out: JAK1 enzyme inhibitory activity (%, 1 μM). The method, boiled down:
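Inhibition expressed against no-enzyme wells (100% inhibition), from time-resolved fluorescence at 665 nm after Eu-anti-phosphotyrosine antibody/EDTA detection. Kinase reaction ran 1 h at room temperature, pH 7.5 HEPES buffer, ULight-JAK1 substrate and ATP diluted to 300 nM and 150 μM before addition.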

The target of another test is T4, JAK3 (Homo sapiens, UniProt P52333).
T4 construct: purchased Invitrogen
T4 sequence (P52333 1-1124): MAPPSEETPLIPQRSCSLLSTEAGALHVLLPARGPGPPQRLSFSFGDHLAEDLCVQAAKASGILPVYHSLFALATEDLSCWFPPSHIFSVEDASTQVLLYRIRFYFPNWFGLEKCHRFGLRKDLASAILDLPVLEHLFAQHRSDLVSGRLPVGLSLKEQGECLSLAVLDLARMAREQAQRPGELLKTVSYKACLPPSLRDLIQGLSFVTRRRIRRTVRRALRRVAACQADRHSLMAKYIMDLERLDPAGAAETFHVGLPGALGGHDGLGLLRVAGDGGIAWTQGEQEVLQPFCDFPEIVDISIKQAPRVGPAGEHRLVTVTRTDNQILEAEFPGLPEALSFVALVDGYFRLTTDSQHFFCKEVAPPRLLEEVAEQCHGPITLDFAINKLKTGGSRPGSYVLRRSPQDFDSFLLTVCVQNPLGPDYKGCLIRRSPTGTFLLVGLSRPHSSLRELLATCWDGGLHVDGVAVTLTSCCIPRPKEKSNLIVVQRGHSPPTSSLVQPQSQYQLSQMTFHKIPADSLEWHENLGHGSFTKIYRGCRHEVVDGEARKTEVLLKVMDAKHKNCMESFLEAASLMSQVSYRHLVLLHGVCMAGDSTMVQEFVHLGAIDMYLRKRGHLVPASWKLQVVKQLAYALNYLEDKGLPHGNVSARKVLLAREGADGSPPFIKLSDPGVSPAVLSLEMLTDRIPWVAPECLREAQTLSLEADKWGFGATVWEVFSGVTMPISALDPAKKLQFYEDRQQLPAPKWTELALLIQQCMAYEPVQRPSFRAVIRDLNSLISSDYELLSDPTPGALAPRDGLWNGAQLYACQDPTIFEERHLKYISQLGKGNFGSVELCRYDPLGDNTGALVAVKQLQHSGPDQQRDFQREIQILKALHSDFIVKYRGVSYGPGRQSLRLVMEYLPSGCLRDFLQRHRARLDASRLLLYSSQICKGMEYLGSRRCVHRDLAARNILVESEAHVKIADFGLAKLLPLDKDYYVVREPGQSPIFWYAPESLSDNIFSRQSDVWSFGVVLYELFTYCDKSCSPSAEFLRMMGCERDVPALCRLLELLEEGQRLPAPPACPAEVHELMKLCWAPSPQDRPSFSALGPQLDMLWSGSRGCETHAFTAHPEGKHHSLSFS
The test is described as follows: JAK3 enzyme inhibition test (LANCE method). Conditions: 1 μM test compound; for inhibition at 1 µM: read-out: JAK3 enzyme inhibitory activity (%, 1 μM). In short, it runs like this: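 TR-FRET (LANCE) read: 1 h room-temperature reaction, EDTA quench, Eu-anti-phosphotyrosine antibody, emission 665 nm after 340 nm excitation. Added solutions held 12 ng/mL JAK3, 300 nM ULight-JAK1 substrate and 15 μM ATP (pH 7.5 HEPES). Activity expressed against no-enzyme wells defined as full inhibition.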

T1 sequence (O60674 whole entry): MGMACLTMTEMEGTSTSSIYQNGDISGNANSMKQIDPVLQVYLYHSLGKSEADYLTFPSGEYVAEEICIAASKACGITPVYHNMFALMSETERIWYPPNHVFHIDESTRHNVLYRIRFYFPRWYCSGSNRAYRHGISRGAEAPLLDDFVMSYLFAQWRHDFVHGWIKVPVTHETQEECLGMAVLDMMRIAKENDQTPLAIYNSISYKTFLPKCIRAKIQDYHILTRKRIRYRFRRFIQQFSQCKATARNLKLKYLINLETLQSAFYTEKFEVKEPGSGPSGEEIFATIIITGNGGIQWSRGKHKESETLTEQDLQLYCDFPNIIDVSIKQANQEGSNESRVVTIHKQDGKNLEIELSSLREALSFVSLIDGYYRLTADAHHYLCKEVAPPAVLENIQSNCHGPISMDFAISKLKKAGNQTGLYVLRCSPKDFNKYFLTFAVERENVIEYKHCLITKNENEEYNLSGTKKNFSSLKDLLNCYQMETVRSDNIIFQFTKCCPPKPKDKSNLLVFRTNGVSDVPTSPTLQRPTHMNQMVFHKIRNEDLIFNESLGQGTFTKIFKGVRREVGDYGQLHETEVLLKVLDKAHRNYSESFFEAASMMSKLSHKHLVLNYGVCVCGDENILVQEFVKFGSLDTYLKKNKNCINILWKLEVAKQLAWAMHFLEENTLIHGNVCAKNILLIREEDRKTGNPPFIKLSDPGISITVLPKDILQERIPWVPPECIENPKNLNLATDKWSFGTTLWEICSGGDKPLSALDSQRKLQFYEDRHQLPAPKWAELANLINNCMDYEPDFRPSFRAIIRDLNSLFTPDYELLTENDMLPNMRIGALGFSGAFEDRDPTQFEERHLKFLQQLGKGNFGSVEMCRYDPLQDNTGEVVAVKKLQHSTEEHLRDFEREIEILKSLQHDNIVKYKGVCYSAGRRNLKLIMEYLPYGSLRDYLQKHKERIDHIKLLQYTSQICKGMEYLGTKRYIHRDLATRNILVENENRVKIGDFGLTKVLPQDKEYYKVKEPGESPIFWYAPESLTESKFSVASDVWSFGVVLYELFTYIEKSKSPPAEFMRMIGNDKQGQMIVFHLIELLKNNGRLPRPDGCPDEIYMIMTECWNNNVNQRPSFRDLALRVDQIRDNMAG
T2 sequence (P29597 whole entry): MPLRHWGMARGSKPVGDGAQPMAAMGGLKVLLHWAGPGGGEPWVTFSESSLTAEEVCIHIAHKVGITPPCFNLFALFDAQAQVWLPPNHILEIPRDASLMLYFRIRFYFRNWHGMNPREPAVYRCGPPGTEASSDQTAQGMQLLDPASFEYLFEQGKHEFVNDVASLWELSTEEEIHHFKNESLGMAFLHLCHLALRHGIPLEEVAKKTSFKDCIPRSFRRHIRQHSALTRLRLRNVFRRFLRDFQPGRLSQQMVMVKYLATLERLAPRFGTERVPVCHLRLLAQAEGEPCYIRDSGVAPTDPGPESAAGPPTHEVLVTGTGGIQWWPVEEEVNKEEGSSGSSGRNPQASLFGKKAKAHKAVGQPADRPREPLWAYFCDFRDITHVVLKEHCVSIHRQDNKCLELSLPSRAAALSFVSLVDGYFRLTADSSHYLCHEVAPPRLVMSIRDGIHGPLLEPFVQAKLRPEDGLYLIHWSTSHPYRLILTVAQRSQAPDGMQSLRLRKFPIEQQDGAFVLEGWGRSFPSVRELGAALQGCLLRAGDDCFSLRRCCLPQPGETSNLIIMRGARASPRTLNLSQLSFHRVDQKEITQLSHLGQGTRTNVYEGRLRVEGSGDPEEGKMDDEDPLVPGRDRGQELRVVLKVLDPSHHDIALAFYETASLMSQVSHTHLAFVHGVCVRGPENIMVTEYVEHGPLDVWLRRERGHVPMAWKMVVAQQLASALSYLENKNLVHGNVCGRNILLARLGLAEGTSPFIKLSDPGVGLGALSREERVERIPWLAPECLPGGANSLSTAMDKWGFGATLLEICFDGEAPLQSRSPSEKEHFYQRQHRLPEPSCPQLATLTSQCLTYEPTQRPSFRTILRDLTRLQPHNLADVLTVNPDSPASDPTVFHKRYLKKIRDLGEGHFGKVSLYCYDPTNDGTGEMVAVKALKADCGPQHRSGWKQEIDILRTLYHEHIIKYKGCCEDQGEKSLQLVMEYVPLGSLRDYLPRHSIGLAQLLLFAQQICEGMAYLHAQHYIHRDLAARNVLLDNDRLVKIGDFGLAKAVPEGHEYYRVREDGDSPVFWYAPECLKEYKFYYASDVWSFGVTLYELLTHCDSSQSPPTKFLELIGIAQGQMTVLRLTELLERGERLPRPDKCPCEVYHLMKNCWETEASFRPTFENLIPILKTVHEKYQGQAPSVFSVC

`C[C@@H](C1CC1)n1cc(-c2cc(N3CCC(O)(C(F)(F)F)CC3)n(C)n2)c2[nH]nc(N)c2c1=O` [Example 94, 3-amino-5-((1S)-1-cyclopropylethyl)-7-(5-(4-hydroxy-4-(trifluoromethyl)piperidin-1-yl)-1-methyl-1H-pyrazol-3-yl)-1,5-dihydro-4H-pyrazolo[4,3-c]pyridin-4-one]: the inhibition at 1 µM at JAK2 is 100%; at TYK2, 99%; on JAK1 it was 100%; at JAK3, 100%.

For the molecule `CC1CCCCC1n1cc(-c2cc(C(C)(C)O)n(C)n2)c2[nH]nc(N)c2c1=O` (stereo not shown) [Example 119, 3-amino-7-(5-(2-hydroxypropan-2-yl)-1-methyl-1H-pyrazol-3-yl)-5-(2-methylcyclohexyl)-1,5-dihydro-4H-pyrazolo[4,3-c]pyridin-4-one], at JAK2, the “JAK2 enzyme inhibitory activity (%, 1 μM)” value is 98%. Besides, the “TYK2 enzyme inhibitory activity (%, 1 μM)” value at TYK2 was 100%. In addition, the “JAK1 enzyme inhibitory activity (%, 1 μM)” value on JAK1 amounted to 99%. In addition, on JAK3, the “JAK3 enzyme inhibitory activity (%, 1 μM)” value was found to be 100%.

On to `Cn1nc(-c2cn(-c3c(F)cccc3F)c(=O)c3c(N)n[nH]c23)cc1C(=O)N1CCOCC1` [Example 66, 3-amino-5-(2,6-difluorophenyl)-7-(1-methyl-5-(morpholin-4-ylcarbonyl)-1H-pyrazol-3-yl)-1,5-dihydro-4H-pyrazolo[4,3-c]pyridin-4-one], for which the inhibition at 1 µM on JAK2 worked out at 99%; at TYK2 it was 100%; at JAK1 it was 99%; at JAK3, 100%.

As for `Cn1nc(-c2cn(C(C3CC3)C3CC3)c(=O)c3c(N)n[nH]c23)cc1C(F)(F)F` [Example 165, 3-amino-5-(dicyclopropylmethyl)-7-(1-methyl-5-(trifluoromethyl)-1H-pyrazol-3-yl)-1,5-dihydro-4H-pyrazolo[4,3-c]pyridin-4-one], the inhibition at 1 µM was 98% on JAK2, 100% on TYK2, 100% at JAK1 and 100% on JAK3.

For `Cn1nc(-c2cn(C(C3CC3)C3CC3)c(=O)c3c(N)n[nH]c23)cc1N1CCS(=O)(=O)CC1` [Example 78, 3-amino-5-(dicyclopropylmethyl)-7-(5-(1,1-dioxidothiomorpholin-4-yl)-1-methyl-1H-pyrazol-3-yl)-1,5-dihydro-4H-pyrazolo[4,3-c]pyridin-4-one], the inhibition at 1 µM was 99% on JAK2, 99% at TYK2, 98% at JAK1 and 100% at JAK3.

Turning to `CC(C)[C@H](C)n1cc(-c2cc(N3CCC(C)(O)C3)n(C)n2)c2[nH]nc(N)c2c1=O` (stereo partly drawn) [Example 64, 3-amino-7-(5-(3-hydroxy-3-methylpyrrolidin-1-yl)-1-methyl-1H-pyrazol-3-yl)-5-((2S)-3-methylbutan-2-yl)-1,5-dihydro-4H-pyrazolo[4,3-c]pyridin-4-one], the “JAK2 enzyme inhibitory activity (%, 1 μM)” value at JAK2 is listed as 99%. Also, the “TYK2 enzyme inhibitory activity (%, 1 μM)” value at TYK2 came out at 100%. In addition, at JAK1, the “JAK1 enzyme inhibitory activity (%, 1 μM)” value was 97%. Besides, on JAK3, the “JAK3 enzyme inhibitory activity (%, 1 μM)” value is given as 99%.

In the case of `CC(C)[C@H](C)n1cc(-c2cc(C3CC3)n(C)n2)c2[nH]nc(N)c2c1=O` [Example 43, 3-amino-7-(5-cyclopropyl-1-methyl-1H-pyrazol-3-yl)-5-((2S)-3-methylbutan-2-yl)-1,5-dihydro-4H-pyrazolo[4,3-c]pyridin-4-one], the inhibition at 1 µM was determined as 97% at JAK2, 100% at TYK2, 97% on JAK1 and 99% on JAK3.

Consider `CC(C)[C@H](C)n1cc(-c2cc(N3CCC(C(C)(C)O)CC3)n(C)n2)c2[nH]nc(N)c2c1=O` [Example 15, 3-amino-7-(5-(4-(2-hydroxypropan-2-yl)piperidin-1-yl)-1-methyl-1H-pyrazol-3-yl)-5-((2S)-3-methylbutan-2-yl)-1,5-dihydro-4H-pyrazolo[4,3-c]pyridin-4-one], for which the inhibition at 1 µM was determined as 99% on JAK2, 100% on TYK2, 97% at JAK1 and 100% at JAK3.

Take `CC(C)[C@H](C)n1cc(-c2cc(N3CCN(S(C)(=O)=O)CC3)n(C)n2)c2[nH]nc(N)c2c1=O` [Example 108, 3-amino-5-((2S)-3-methylbutan-2-yl)-7-(1-methyl-5-(4-(methylsulfonyl)piperazin-1-yl)-1H-pyrazol-3-yl)-1,5-dihydro-4H-pyrazolo[4,3-c]pyridin-4-one]: the inhibition at 1 µM on JAK2 stood at 98%; on TYK2 it was 100%; at JAK1, 98%; on JAK3 it was 99%.

For the molecule `CN(C)[C@H]1CCN(c2cc(-c3cn(-c4c(F)cccc4F)c(=O)c4c(N)n[nH]c34)nn2C)C1` [Example 140, 3-amino-5-(2,6-difluorophenyl)-7-(5-((3S)-3-(dimethylamino)pyrrolidin-1-yl)-1-methyl-1H-pyrazol-3-yl)-1,5-dihydro-4H-pyrazolo[4,3-c]pyridin-4-one], the inhibition at 1 µM was determined as 99% on JAK2, 99% at TYK2, 98% on JAK1 and 100% at JAK3.

Regarding `C[C@H](C1CC1)n1cc(-c2cc(N3CCOCC3)n(C)n2)c2[nH]nc(N)c2c1=O` [Example 6, 3-amino-5-((1R)-1-cyclopropylethyl)-7-(1-methyl-5-(morpholin-4-yl)-1H-pyrazol-3-yl)-1,5-dihydro-4H-pyrazolo[4,3-c]pyridin-4-one], the inhibition at 1 µM at JAK2 came to 93%; at TYK2, 100%; at JAK1, 96%; at JAK3 it was 98%.

As for `COC[C@@H]1CCCN1c1cc(-c2cn([C@@H](C)C(C)C)c(=O)c3c(N)n[nH]c23)nn1C` [Example 26, 3-amino-7-(5-((2S)-2-(methoxymethyl)pyrrolidin-1-yl)-1-methyl-1H-pyrazol-3-yl)-5-((2S)-3-methylbutan-2-yl)-1,5-dihydro-4H-pyrazolo[4,3-c]pyridin-4-one], the inhibition at 1 µM at JAK2 was 96%; at TYK2, 98%; at JAK1 it was 88%; at JAK3, 98%.

In the case of `CN(c1cc(-c2cn(-c3c(F)cccc3C#N)c(=O)c3c(N)n[nH]c23)nn1C)C1CCCC1` [Example 123, 2-(3-amino-7-(5-(cyclopentyl(methyl)amino)-1-methyl-1H-pyrazol-3-yl)-4-oxo-1,4-dihydro-5H-pyrazolo[4,3-c]pyridin-5-yl)-3-fluorobenzonitrile], the inhibition at 1 µM came to 94% at JAK2, 100% at TYK2, 97% at JAK1 and 95% on JAK3.
